These results are taken from US10064834B2, “Carbidopa for the treatment of cancer” (Texas Tech University System, priority 2016, dated 2018).

Structures are written as SMILES. Where two headings read alike, the source gives them in different places.

Data set [1] has as its system AhR.
Protocol: With a fixed concentration (10 μM), the inventors compared in HepG2 cells the induction of CYP1A1 by Carbidopa with that by other known AhR agonists, which included 3-ethylcholanthrene, benzo[a]pyrene, kynurenine, indole-3-carbinol, and indole acetic acid (Table 1).
For data set [2], the system named is AhR. As to conditions: BxPC-3, Carbidopa 10 μM, 6 h.
Data set [3] relates to AhR. Conditions: Capan-2.
The test system of data set [4] is BxPC-3 cells. As to the kind of experiment: Subcutaneous BxPC-3 xenograft in athymic nude mice. The data set is classed as in vivo, mouse.
Protocol: FIGS. 2A and 2B show the in vivo effect of Carbidopa on the growth of BxPC-3 cells in mouse xenografts. The cells were injected subcutaneously in athymic nude mice. Carbidopa (1 mg/mouse) was injected intraperitoneally (i.p.) two days prior to the injection of the tumor cells (prevention mode). Drug injection was continued every day at the same dose. […] The growth of the tumor at the injected site was monitored every other day.
Xenograft studies. Female athymic nu/nu mice (8-week-old) were allowed to acclimatize to the environment for about a week before the start of the experiment. The animals were divided into control and treatment groups and injected with phosphate-buffered saline (control group) and Carbidopa @ 1 mg/mouse/day) (treatment group) intraperitoneally, at least 5 days prior to tumor cell injection. BxPC-3 (10×10^6 cells in 30% matrigel) was injected subcutaneously at the right flank of the mice. The treatment continued all through the experimental period. Tumor size in different groups were measured using a caliper and the tumor volume was calculated using the formula (width^2×length)/2.
The conditions of data set [5]: cited from earlier work.
In data set [6] the test system is Ki-67, p-mTOR, HIF1α and Cyp1a1 protein expression. As to the kind of experiment: Immunohistochemical analysis in MMTV-PyMT-Tg mice. Conditions: Carbidopa-treated MMTV-PyMT-Tg mice. In kind it is in vivo, mouse. The source says: FIG. 8 is an immunohistochemical analysis of Ki-67, p-mTOR, HIF1α and Cyp1a1 protein expression in MMTV-PyMT-Tg mice treated with and without Carbidopa. […] Hypoxia is a key regulatory factor in tumor progression and in response to the hypoxic tumor environment, it regulates cell metabolism and redox homeostasis. HIF1α level in tumors is controlled by mTOR. […] To further validate the data, the inventors measured the expression of Cyp1a1 in MMTV-PyMT-Tg mice treated with and without Carbidopa. Cyp1a1 is an aryl hydrocarbon (AhR) receptor-responsive gene induced in response to AhR activation. AhR is activated by kynurenine, a product of IDO1 action on tryptophan. Thus, Cyp1a1 levels in tumor tissues serve as a read out for IDO1 activity. […] H&E, hematoxylin and eosin stain.

The test system of the next data set is MB-231 cells. As to the kind of experiment: Colony formation assay, ER-negative breast cancer cells. The data set is classed as cell-based, human. From the text:
Breast cancer occurs in different subtypes: estrogen receptor-positive, estrogen receptor-negative, and BRCA1-mutant. The MMTV-PyMT-Tg mice represent estrogen receptor-positive breast cancer at least at the initial stages. To assess the potential of Carbidopa for the treatment of ER-negative breast cancer, the inventors used the human breast cancer cell line MB-231, a well-established model to study ER-negative breast cancer in model systems. The inventors monitored the effect of Carbidopa (dose response) on the growth of these cells using the colony formation assay.

The conditions of data set [7]: in vivo; cited from earlier work.
The subject of data set [8] is AhR. In words: Immunofluorescence localisation of AhR. The data set is classed as cell-based, human. Conditions: 25 μM for 6 h.
Protocol: Immunofluorescence. Immunofluorescence studies were performed as described [12]. Briefly, cells grown on chamber slides were fixed, blocked and stained with mouse anti-AhR antibody (Abcam, Cambridge, Mass., USA) for 45 min after which they were washed and stained with secondary antibody (goat anti-mouse IgG) conjugated with Alexa Fluor 488 (Molecular Probes, Eugene, Oreg., USA); further washed and mounted with ProLong Diamond Antifade mountant with DAPI and the images were captured using a Nikon inverted microscope. Nuclei stained with DAPI are blue. Magnification, 100×.
For data set [9] the following is noted: in vivo; cited from earlier work. This is another data set of the same source.
The conditions of data set [10]: human, oral, cited from earlier work.
Another data set concerns hTERT-HPNE cells. In words: Colony formation (clonogenic) assay, normal pancreatic cell line. In kind it is cell-based, human. As to conditions: 10 μM, two weeks. The procedure:
(§1) Cell proliferation. Clonogenic assay was performed as described. The cells were seeded at a very low density (500 cells/well) and allowed to attach to the substratum. […] The wells were washed every other day and fresh Carbidopa was added to the wells. At the end of the two-week period, the wells were washed and the colonies were visualized with KaryoMax Giemsa stain after fixation with methanol. The stain was eluted with 1% sodium dodecyl sulfate in […] and the absorbance was measured at 630 nm. Inhibition of pancreatic cancer cell proliferation by Carbidopa and its potential relevance to the ability of the drug to inhibit IDO1. To test whether Carbidopa has anticancer effect, the inventors used pancreatic cancer as a model. For this, the inventors first conducted a colony formation assay with a human pancreatic normal cell line (hTERT-HPNE) and two human pancreatic cancer cell lines (BxPC-3 and Capan-2). […] To corroborate these in vitro data, the inventors performed subcutaneous xenografts in athymic nude mice using BxPC-3 cells.

The test system of data set [11] is spontaneous breast cancer driven by the polyoma middle T antigen oncogene. As to the kind of experiment: Spontaneous breast cancer in MMTV-PyMT-Tg mice. The data set is classed as in vivo. As to conditions: 1 mg/mouse i.p. From the text: The MMTV-PyMT-Tg mice develop spontaneous breast tumors within 2 months of age. […] The drug treatment was started at 4 weeks of age and continued for two months. The mice were photographed at the end of this experimental period. The circles indicate the tumor size in two representative control mice and two representative Carbidopa-treated mice. […] The MMTV-PyMT-Tg mice develop spontaneous breast tumors within 2 months of age. […] The drug treatment was started at 4 weeks of age and continued for three months. The mice were photographed at the end of the study period. The circles indicate the tumor size in two representative control mice and two representative Carbidopa-treated mice.

In data set [12] the test system is BxPC-3 cells. In words: Colony formation (clonogenic) assay, BxPC-3. In kind it is cell-based, human.
Protocol: Clonogenic assay was performed as described [12]. The cells were seeded at a very low density (500 cells/well) and allowed to attach to the substratum. They were then treated with 10 μM Carbidopa and the colonies were allowed to grow for two weeks. The wells were washed every other day and fresh Carbidopa was added to the wells. At the end of the two-week period, the wells were washed and the colonies were visualized with KaryoMax Giemsa stain after fixation with methanol. The stain was eluted with 1% sodium dodecyl sulfate in 0.2 NaOH and the absorbance was measured at 630 nm.
In a further data set the test system is Panc-1 cells. As to the kind of experiment: Colony formation assay, Panc-1. The data set is classed as cell-based. As to conditions: Homo sapiens; Panc-1, colony formation; read-out: Carbidopa concentration for 50% inhibition of growth. From the text:
Colony formation assay was used to assess the effect.

The test system of another data set is HCC-1937 cells. As to the kind of experiment: Colony formation assay, BRCA-1 mutant breast cancer cells. In kind it is cell-based, human. The source says:
Breast cancer occurs in different subtypes: estrogen receptor-positive, estrogen receptor-negative, and BRCA1-mutant. Mutations in BRCA-1 represent a small percentage of breast cancers in women but the disease is inheritable. […] To assess the potential of Carbidopa for the treatment of mutant BRCA-1-driven breast cancer, the inventors used the human breast cancer cell line HCC-1937, a well-established model to study mutant BRCA-1-driven breast cancer in model systems. The inventors monitored the effect of Carbidopa (dose response) on the growth of these cells using the colony formation assay.

In data set [13] the target is recombinant human indoleamine dioxygenase-1 (IDO1) (Homo sapiens, UniProt P14902). As to the kind of experiment: IDO1 enzymatic activity assay (colorimetric). In kind it is biochemical. The source says: IDO-1 is an immunosuppressive enzyme that is induced in tumor cells and in immune cells present in tumor-draining lymph nodes. Induction of this enzyme suppresses the ability of the immune system to recognize tumor cells as foreign cells, which provides a means for the tumor cells to escape the immune attack. Pharmacological inhibition of this enzyme has potential in cancer treatment because such an approach will potentiate the ability of the immune system to kill the tumor cells. Many pharmaceutical companies have research programs in identifying selective inhibitors of IDO-1 for this purpose and some of the drugs are already in clinical trials in cancer patients. The present inventors assessed the ability of Carbidopa on the activity of this enzyme using the recombinant human enzyme.
Chain of recombinant human indoleamine dioxygenase-1 (IDO1) (P14902 whole entry): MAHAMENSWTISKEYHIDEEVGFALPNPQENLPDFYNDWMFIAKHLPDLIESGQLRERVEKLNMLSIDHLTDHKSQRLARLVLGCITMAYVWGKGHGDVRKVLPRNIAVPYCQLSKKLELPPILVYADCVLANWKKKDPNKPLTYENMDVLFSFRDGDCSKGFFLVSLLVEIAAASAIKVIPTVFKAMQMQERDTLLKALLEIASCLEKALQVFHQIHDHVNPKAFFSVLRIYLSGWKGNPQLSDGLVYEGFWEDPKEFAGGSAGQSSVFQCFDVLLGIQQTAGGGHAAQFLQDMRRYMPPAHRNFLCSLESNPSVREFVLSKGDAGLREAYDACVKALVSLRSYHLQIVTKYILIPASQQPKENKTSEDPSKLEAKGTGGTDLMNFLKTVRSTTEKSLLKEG
To date, the only known pharmacological action of Carbidopa is the inhibition of aromatic amino acid decarboxylase, but the inventors are not aware of any direct association between this enzyme and cancer. Therefore, the inventors looked for new, hitherto unknown, pharmacological actions for this drug that could be related to the observed anticancer effect. […]

For another data set, the system named is Capan-2 cells. In words: Colony formation (clonogenic) assay, Capan-2. In kind it is cell-based, human. Conditions: Capan-2, 10 μM, two weeks. The procedure:
as §1

In data set [14] the target is indoleamine-2,3-dioxygenase 1 (IDO1) (Homo sapiens, UniProt P14902). As to conditions: reference [13]; cited from earlier work.
Chain of indoleamine-2,3-dioxygenase 1 (IDO1) (P14902 whole entry): as above

As for `Cc1ccc2cc3c(ccc4ccccc43)c3c2c1CC3` [3-Methylcholanthrene], in the data set with AhR [1] (HepG2 cells, 10 micromolar), the “CYP1A1 expression, Fold [range]” value is given as 56.8 Fold.

`c1ccc2c(c1)cc1ccc3cccc4ccc2c1c34` [Benzo [a] pyrene]: the “CYP1A1 expression, Fold [range]” value with AhR [1] (HepG2 cells, 10 micromolar) is 35.3 Fold.

As for `Cc1ccccc1N=Nc1ccc(NC(=O)c2ccnn2C)c(C)c1` [CH223191], the “effect of AhR antagonist on Carbidopa-induced CYP1A1 expression” value is listed as “blocked” in the data set on AhR [2]; “blocked” in the data set with AhR [3]; “blocked” with AhR [1] (HepG2, Carbidopa 10 μM, CH223191 10 μM, resveratrol 20 μM, 6 h).

`C[C@@](Cc1ccc(O)c(O)c1)(NN)C(=O)O` [Carbidopa, (2S)-3-(3,4-dihydroxyphenyl)-2-hydrazino-2-methylpropanoic acid]: in the data set with BxPC-3 cells [4] (1 mg/mouse i.p. every day, prevention mode), the “growth of the tumor” value is listed as “reduced the growth of the tumor markedly”. Also, in the data set on BxPC-3 cells [4] (daily dose of 1 mg/mouse, intraperitoneal), the “tumor volume compared to untreated controls” value was “significantly reduced the tumor volume”. Besides, the “side effects in humans” value in data set [5] (<400 mg/day in patients weighing 60 kg) was “no unwanted side effects”. Further, the safety in humans entry in data set [5] (dose as high as 450 mg/day) is listed as “safe”. Besides, the “Cyp1a1 expression in tumor tissues” value in data set [6] was “significant reduction in Cyp1a1 expression”. The HIF1α protein result in [6] is listed as “marked decrease in HIF1α protein”. Besides, the “Ki-67 staining (cell proliferation)” value in data set [6] was “marked reduction in proliferation”. For the same compound, in data set [6], the p-mTOR staining entry was “marked reduction in p-mTOR staining”. Also, the IC50 was under 15 µM with MB-231 cells (Homo sapiens, MB-231, colony formation, read-out: Carbidopa concentration for 50% inhibition of growth); under 50 µM in the data set with Panc-1 cells; under 25 µM with HCC-1937 cells (Homo sapiens, HCC1937, HCC-1937, colony formation, read-out: Carbidopa concentration for 50% inhibition of growth). The “effect on the growth of the cells” value in the data set with MB-231 cells (MB-231, dose response) is on record as “marked inhibitory effect”; in the data set with HCC-1937 cells (HCC-1937, dose response), “marked inhibitory effect”. Besides, the oral bioavailability result in data set [7] was “orally bioavailable”. Besides, the “localisation of AhR” value with AhR [8] (BxPC-3 cells) was “nuclear translocation of the receptor”; in the data set on AhR [8] (Capan-2 cells), “nuclear translocation of the receptor”; in the data set with AhR [8] (HepG2 cells), “led to the nuclear translocation of AhR”. Also, the “crossing of the blood-brain barrier” value in data set [9] is “inability of the latter to cross the blood-brain barrier”. The figures for the plasma concentration in data set [10] (75 mg/day dose) and in [10] (450 mg/day dose) were 2000 nM and 16000 nM, respectively. The “number of colonies compared to untreated controls” value is “not seen” in the data set with hTERT-HPNE cells; “significantly reduced” in the data set with BxPC-3 cells [12] (BxPC-3, 10 μM, two weeks); “significantly reduced” with Capan-2 cells. Also, the “number and size of the tumors” value in data set [11] (treatment for three months) was “reduced the number and size of the tumors”; in [11] (treatment for two months) it was “reduced the number and size of the tumors”. In addition, in the data set on AhR [1], the “concentrations at which Carbidopa activates AhR” value fell in the range of 3000 to 10000 nM. Besides, the “CYP1A1 expression, Fold [range]” value in the data set on AhR [1] (human, 10 μM) was determined as 2.63 Fold. Besides, the “time post-treatment at which CYP1A1 induction is seen” value in the data set on AhR [1] (human, 10 μM) is at most 3 h. In addition, the “growth of BxPC-3 cells” value with BxPC-3 cells [12] (10 μM Carbidopa, colony formation) is given as “almost completely abolished”. Also, in [13] (10 μM), the “inhibition of IDO-1 enzyme activity” value was “inhibits IDO-1 significantly”. The “inhibition of IDO1 enzyme activity” value in [13] (colorimetric assay of kynurenine, efficacy said to be markedly underestimated) is given as “does indeed inhibit IDO1”.

Turning to `OCc1c[nH]c2ccccc12` [Indole 3-carbinol], in the data set on AhR [1] (HepG2 cells, 10 micromolar), the “CYP1A1 expression, Fold [range]” value was 7.62 Fold.

For the compound `Nc1ccccc1C(=O)CC(N)C(=O)O` (stereo not shown) [Kynurenine], the “CYP1A1 expression, Fold [range]” value with AhR [1] (human, 10 μM) came to 3.97 Fold.

As to `N[C@@H](Cc1ccc(O)c(O)c1)C(=O)O` [L-DOPA, L-3,4-dihydroxyphenylalanine], the “CYP1A1 mRNA expression” value in the data set on AhR [1] (human, 6 h, 100 μM) is given as “did not affect CYP1A1 expression”.

Take `NNc1ccccc1` [phenylhydrazine]: in [14], the IC50 is 8 ± 2 µM.
